Experimental data reported in ChEMBL document CHEMBL5576131, “Atropisomerism Observed in Galactose-Based Monosaccharide Inhibitors of Galectin-3 Comprising 2-Methyl-4-phenyl-2,4-dihydro-3H-1,2,4-triazole-3-thione” (J Med Chem, 2024).

Experiments:
[1] = Cmax in male C57BL/6 mouse at 10 mg/kg, po measured after 24 hrs by UPLC/MS/MS analysis; assay type: ADME, organism-based; conditions: in vivo
[2] = Tmax in male C57BL/6 mouse at 10 mg/kg, po measured after 24 hrs by UPLC/MS/MS analysis; assay type: ADME, organism-based; conditions: in vivo
[3] = AUC (0 to 24 hrs) in male C57BL/6 mouse at 10 mg/kg, po measured after 24 hrs by UPLC/MS/MS analysis; assay type: ADME, organism-based; conditions: in vivo
Galectin-3 [4] = target: Galectin-3 (Mus musculus, UniProt P16110); assay: Inhibition of his-tagged N-terminal recombinant mouse Gal-3 preincubated for 30 mins followed by Biotin-ASF addition and measured after 1 hr by HTRF assay
Sequence of Galectin-3 (Mus musculus, UniProt P16110) (P16110 whole entry): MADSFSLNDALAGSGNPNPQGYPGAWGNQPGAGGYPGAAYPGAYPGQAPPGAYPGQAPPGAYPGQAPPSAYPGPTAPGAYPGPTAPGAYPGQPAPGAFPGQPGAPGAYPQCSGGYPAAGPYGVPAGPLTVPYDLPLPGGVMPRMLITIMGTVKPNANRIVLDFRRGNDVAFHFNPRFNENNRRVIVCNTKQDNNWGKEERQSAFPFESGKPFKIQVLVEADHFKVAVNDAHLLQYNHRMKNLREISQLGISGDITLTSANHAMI

Galectin-1 = Galectin-1 (Homo sapiens, UniProt P09382); assay: Inhibition of his-tagged N-terminal human Gal-1 preincubated for 30 mins followed by Biotin-ASF addition and measured after 1 hr by HTRF assay
Sequence of Galectin-1 (P09382 whole entry): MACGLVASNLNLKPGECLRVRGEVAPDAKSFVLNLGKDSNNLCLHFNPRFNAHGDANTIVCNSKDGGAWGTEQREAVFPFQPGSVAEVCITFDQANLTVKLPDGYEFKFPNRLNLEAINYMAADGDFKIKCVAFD

Galectin-9 = Galectin-9 (Homo sapiens, UniProt O00182); assay: Inhibition of his-tagged N-terminal human Gal-9 preincubated for 30 mins followed by Biotin-ASF addition and measured after 1 hr by HTRF assay
Sequence of Galectin-9 (O00182 whole entry): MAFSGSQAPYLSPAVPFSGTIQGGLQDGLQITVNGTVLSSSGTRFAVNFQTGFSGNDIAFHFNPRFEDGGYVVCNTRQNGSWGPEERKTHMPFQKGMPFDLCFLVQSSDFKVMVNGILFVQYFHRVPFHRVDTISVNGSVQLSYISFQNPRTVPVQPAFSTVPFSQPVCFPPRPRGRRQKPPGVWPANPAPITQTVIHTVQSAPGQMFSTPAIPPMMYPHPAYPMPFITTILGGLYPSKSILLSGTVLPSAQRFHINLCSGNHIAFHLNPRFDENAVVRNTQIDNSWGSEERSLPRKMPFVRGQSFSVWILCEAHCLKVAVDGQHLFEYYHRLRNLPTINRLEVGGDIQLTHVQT

[5] = Permeability of the compound at pH 5.5 incubated for 4 hrs by PAMPA; assay type: ADME; conditions: for Papp at 4 h: PAMPA, pH 5.5, read-out: permeability
[6] = Permeability of the compound at pH 7.4 incubated for 4 hrs by PAMPA; assay type: ADME; conditions: for Papp at 4 h: PAMPA, pH 7.4, read-out: permeability; for permeability: pampa, pH 7.4, 4 h
Galectin-3 [7] = target: Galectin-3 (Homo sapiens, UniProt P17931); assay: Inhibition of his-tagged N-terminal recombinant human Gal-3 preincubated for 30 mins followed by Biotin-ASF addition and measured after 1 hr by HTRF assay
Sequence of Galectin-3 (Homo sapiens, UniProt P17931) (P17931 whole entry): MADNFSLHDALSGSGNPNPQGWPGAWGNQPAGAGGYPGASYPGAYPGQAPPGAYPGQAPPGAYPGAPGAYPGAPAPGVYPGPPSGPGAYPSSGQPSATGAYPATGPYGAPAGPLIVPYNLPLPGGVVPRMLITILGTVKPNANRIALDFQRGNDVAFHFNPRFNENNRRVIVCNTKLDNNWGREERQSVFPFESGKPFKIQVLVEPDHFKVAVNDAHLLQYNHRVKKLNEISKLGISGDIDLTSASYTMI

[8] = Permeability of the compound in human Caco-2 cells across apical to basolateral side at pH 7.4 incubated for 2 hrs by LC-MS/MS analysis; assay type: ADME, cell-based; conditions: Caco-2, pH 7.4, read-out: permeability
[9] = Permeability of the compound in human Caco-2 cells across basolateral to apical side at pH 7.4 incubated for 2 hrs by LC-MS/MS analysis; assay type: ADME, cell-based; conditions: Caco-2, pH 7.4, read-out: permeability
[10] = Permeability of the compound across apical to basolateral side in human Caco-2 cells assessed as drug recovery at pH 7.4 incubated for 2 hrs by LC-MS/MS analysis; assay type: ADME, cell-based; conditions: Caco-2, pH 7.4, read-out: Drug recovery
[11] = Permeability of the compound across basolateral to apical side in human Caco-2 cells assessed as drug recovery at pH 7.4 incubated for 2 hrs by LC-MS/MS analysis; assay type: ADME, cell-based; conditions: Caco-2, pH 7.4, read-out: Drug recovery

IC50 (Galectin-3 [4]) [nM] | Papp at 4 h [5] [×10⁻⁶ cm/s] | Papp at 4 h [6] [×10⁻⁶ cm/s] | IC50 (Galectin-3 [7]) [nM] | Structure (SMILES) | further results
 |  |  |  | OC[C@H]1O[C@H](Sc2ccc(Cl)c(Cl)c2)[C@H](O)[C@@H](n2cc(-c3cc(F)c(F)c(F)c3)nn2)[C@H]1O | Cmax [1]: 6300 nM; Tmax [2]: 7 h; AUC(0-t) at 24 h [3]: 84 µM·h
 |  |  |  | Cc1nc([C@@H]2O[C@H](CO)[C@H](O)[C@H](n3cc(-c4cc(F)c(Cl)c(F)c4)nn3)[C@H]2O)n(-c2cc(Cl)ccc2C(F)(F)F)n1 | Tmax [2]: 3 h
160 |  |  |  | CO[C@@H]1[C@@H](n2cc(-c3cc(F)c(Cl)c(F)c3)nn2)[C@@H](O)[C@@H](CO)O[C@H]1c1nncn1-c1cc(Cl)ccc1C(F)(F)F | IC50 (Galectin-1): 7000 nM; IC50 (Galectin-9): 7000 nM
100 | 54 | 49 |  | CO[C@@H]1[C@@H](n2cc(-c3ccc(Cl)c(F)c3F)nn2)[C@@H](O)[C@@H](CO)O[C@H]1c1nncn1-c1cc(Cl)ccc1OC(F)(F)F | Cmax [1]: 3000 nM; Tmax [2]: 3 h; AUC(0-t) at 24 h [3]: 16 µM·h; IC50 (Galectin-1): 2000 nM; IC50 (Galectin-9): 2400 nM
62 | 21 | 18 |  | OC[C@H]1O[C@@H](c2nncn2-c2cc(Cl)ccc2OC(F)(F)F)[C@H](O)[C@@H](n2cc(-c3ccc(Br)c(F)c3F)nn2)[C@H]1O | 
110 | 68 | 88 |  | OC[C@H]1O[C@@H](c2nncn2-c2cc(Cl)ccc2C(F)(F)F)[C@H](OCC(F)(F)C(F)F)[C@@H](n2cc(-c3ccc(Br)c(F)c3F)nn2)[C@H]1O | 
69 | 7 | 7 |  | OC[C@H]1O[C@@H](c2nncn2-c2cc(Cl)ccc2C(F)(F)F)[C@H](O)[C@@H](n2cc(-c3ccc(Br)c(F)c3F)nn2)[C@H]1O | 
52 | 33 | 28 | 9 | CO[C@@H]1[C@@H](n2cc(-c3ccc(Br)c(F)c3F)nn2)[C@@H](O)[C@@H](CO)O[C@H]1c1nncn1-c1cc(Cl)ccc1C(F)(F)F | 
350 | 3.6 | 1.7 |  | OC[C@H]1O[C@@H](c2nncn2-c2cc(Cl)ccc2Cl)[C@H](O)[C@@H](n2cc(-c3cc(F)c(Cl)c(F)c3)nn2)[C@H]1O | 
100 |  | 27 | 13 | OC[C@H]1O[C@@H](c2nncn2-c2cc(Cl)ccc2OC(F)(F)F)[C@H](O)[C@@H](n2cc(-c3ccc(Cl)c(F)c3F)nn2)[C@H]1O | 
100 | 1.8 | 2.1 |  | OC[C@H]1O[C@@H](c2nncn2-c2cc(Cl)ccc2C(F)(F)F)[C@H](O)[C@@H](n2cc(-c3ccc(Cl)c(F)c3)nn2)[C@H]1O | 
 |  |  |  | OC[C@H]1O[C@@H](c2ncnn2-c2ccc(Cl)c(Cl)c2)[C@H](O)[C@@H](n2cc(-c3cc(F)c(F)c(F)c3)nn2)[C@H]1O | Cmax [1]: 410 nM; Tmax [2]: 3 h; AUC(0-t) at 24 h [3]: 1.8 µM·h
71 | 20 | 22 | 22 | CO[C@@H]1[C@@H](n2cc(-c3ccc(Br)c(F)c3)nn2)[C@@H](O)[C@@H](CO)O[C@H]1c1nncn1-c1cc(Cl)ccc1C(F)(F)F | 
67 |  |  |  | Cc1nnc([C@@H]2O[C@H](CO)[C@H](O)[C@H](n3cc(-c4cc(F)c(Cl)c(F)c4)nn3)[C@H]2O)n1-c1cc(Cl)ccc1C(F)(F)F (stereo in doubt; 4) | permeability ([6]; 4 h): 4.4 ×10⁻⁶ cm/s; IC50 (Galectin-1): 2500 nM; IC50 (Galectin-9): 4000 nM
7000 |  |  | 1300 | Cc1nnc([C@@H]2O[C@H](CO)[C@H](O)[C@H](n3cc(-c4cc(F)c(Cl)c(F)c4)nn3)[C@H]2O)n1-c1cc(Cl)ccc1C(F)(F)F (stereo in doubt; 5) | permeability ([6]; 4 h): 1.6 ×10⁻⁶ cm/s
50 | 1.1 | 0.2 | 7 | OC[C@H]1O[C@@H](c2n[nH]c(=S)n2-c2cc(Cl)ccc2OC(F)(F)F)[C@H](O)[C@@H](n2cc(-c3ccc(Cl)c(F)c3F)nn2)[C@H]1O (stereo in doubt; 16) | Papp A→B at 2 h [8]: < 1.5 ×10⁻⁶ cm/s; Papp B→A at 2 h [9]: 3.2 ×10⁻⁶ cm/s; recovery at 2 h [10]: 67%; recovery at 2 h [11]: 81%
720 |  |  | 70 | OC[C@H]1O[C@@H](c2n[nH]c(=S)n2-c2cc(Cl)ccc2OC(F)(F)F)[C@H](O)[C@@H](n2cc(-c3ccc(Cl)c(F)c3F)nn2)[C@H]1O (stereo in doubt; 17) | permeability [6]: 0.2 ×10⁻⁶ cm/s
25 |  | 0.1 | 6.9 | OC[C@H]1O[C@@H](c2n[nH]c(=S)n2-c2cc(Cl)ccc2C(F)(F)F)[C@H](O)[C@@H](n2cc(-c3ccc(Br)c(F)c3F)nn2)[C@H]1O (stereo in doubt; 18) | 
1000 |  |  | 76 | OC[C@H]1O[C@@H](c2n[nH]c(=S)n2-c2cc(Cl)ccc2C(F)(F)F)[C@H](O)[C@@H](n2cc(-c3ccc(Br)c(F)c3F)nn2)[C@H]1O (stereo in doubt; 19) | permeability ([6]; 4 h): 0.2 ×10⁻⁶ cm/s
40 | 12 |  |  | Cn1nc([C@@H]2O[C@H](CO)[C@H](O)[C@H](n3cc(-c4ccc(Br)c(F)c4F)nn3)[C@H]2O)n(-c2cc(Cl)ccc2C(F)(F)F)c1=S (stereo in doubt; 20) | Cmax [1]: 1900 nM; Tmax [2]: 3 h; AUC(0-t) at 24 h [3]: 12 µM·h; permeability ([6]; 4 h): 8.6 ×10⁻⁶ cm/s; IC50 (Galectin-1): 2400 nM; IC50 (Galectin-9): 7200 nM; Papp A→B at 2 h [8]: < 1.5 ×10⁻⁶ cm/s; Papp B→A at 2 h [9]: 15 ×10⁻⁶ cm/s; recovery at 2 h [10]: 59%; recovery at 2 h [11]: 80%
3800 |  |  |  | Cn1nc([C@@H]2O[C@H](CO)[C@H](O)[C@H](n3cc(-c4ccc(Br)c(F)c4F)nn3)[C@H]2O)n(-c2cc(Cl)ccc2C(F)(F)F)c1=S (stereo in doubt; 21) | permeability ([5]; pampa, pH 5.5, 4 h, 4 h): 22 ×10⁻⁶ cm/s; permeability ([6]; 4 h): 28 ×10⁻⁶ cm/s
